Reference: ChEMBL document CHEMBL1201862, “PubChem BioAssay data set” (2004)
Calls of active or inactive are those of the source.

Legend:
[1] = HEK-293T cell viability reduction – luminescence, B-cell screen hits, cytotoxicity control for BCR NF-kB inhibitor project, dose response (AID 489021); type: functional, cell-based;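 further: HEK-293T cells carrying an NF-kB luciferase reporter; cells exposed to compound for about 14 hours before viability readout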
Cytochrome P450 2C19 = Cytochrome P450 2C19 (Homo sapiens, UniProt P33261); test: Cytochrome panel assay with activity outcomes. Panel member name: p450-cyp2c19 Compounds with AC50 equal or less than 10 uM are considered active; type: functional; settings: read-out: AC50
Sequence of Cytochrome P450 2C19 (P33261 whole entry): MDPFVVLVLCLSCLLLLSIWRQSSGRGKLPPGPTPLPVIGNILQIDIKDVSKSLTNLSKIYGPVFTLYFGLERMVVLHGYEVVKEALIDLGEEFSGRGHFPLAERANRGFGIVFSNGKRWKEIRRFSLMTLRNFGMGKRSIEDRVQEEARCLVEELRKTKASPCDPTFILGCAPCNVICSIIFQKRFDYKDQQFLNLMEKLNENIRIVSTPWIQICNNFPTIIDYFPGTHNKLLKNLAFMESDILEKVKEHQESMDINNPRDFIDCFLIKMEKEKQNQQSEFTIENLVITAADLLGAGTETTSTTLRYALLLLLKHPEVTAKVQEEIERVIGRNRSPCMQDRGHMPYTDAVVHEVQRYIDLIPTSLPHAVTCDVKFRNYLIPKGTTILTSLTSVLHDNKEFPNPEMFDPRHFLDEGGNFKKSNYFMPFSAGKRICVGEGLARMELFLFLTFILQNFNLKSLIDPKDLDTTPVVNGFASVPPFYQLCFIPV

HEK293 [2] = test: HEK293T cell viability loss, resazurin readout – resazurin fluorescence, cytotoxicity control for NF-kB activator project, SAR follow-up (AID 493251); type: functional, cell-based; settings: Homo sapiens
Jurkat = test: SAR Analysis of small molecule inhibitors of T-cell specific antigen receptor-induced NF-kB activation in a Jurkat cell line using a luminescence assay - Set 2. [Related pubchem assays (depositor defined):AID435003, AID435012, AID465]; type: functional, cell-based; settings: Homo sapiens
HEK293 [3] = test: SAR Analysis of small molecule inhibitors of T-cell specific antigen receptor-induced NF-kB activation in a HEK-293T cell line using a luminescence assay - Set 2. [Related pubchem assays (depositor defined):AID435003, AID435012, AID489026]; type: functional, cell-based; settings: Homo sapiens
[4] = target: T1, RNA-binding protein pos-1 (Caenorhabditis elegans, UniProt G5EF15); test: disruptors of C. elegans POS-1 RNA interaction – biochemical, fluorescence polarization, dose response (AID 1964);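 further: purified POS-1 fused to maltose binding protein made in E. coli; potency of compounds blocking POS-1 binding to fluorescent RNA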
T1 sequence (G5EF15 whole entry): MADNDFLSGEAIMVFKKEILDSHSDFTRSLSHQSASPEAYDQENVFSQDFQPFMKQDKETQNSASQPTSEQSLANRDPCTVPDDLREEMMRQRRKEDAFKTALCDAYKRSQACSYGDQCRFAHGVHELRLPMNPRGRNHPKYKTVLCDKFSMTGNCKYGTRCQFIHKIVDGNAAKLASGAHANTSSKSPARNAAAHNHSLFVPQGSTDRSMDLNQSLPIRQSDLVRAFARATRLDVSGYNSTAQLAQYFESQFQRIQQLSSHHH

[5] = target: T2, Zinc finger protein mex-5 (Caenorhabditis elegans, UniProt Q9XUB2); test: potency of MEX-5 RNA-binding blockers – biochemical, C. elegans, fluorescence polarization, dose response (AID 1960)
T2 sequence (Q9XUB2 whole entry): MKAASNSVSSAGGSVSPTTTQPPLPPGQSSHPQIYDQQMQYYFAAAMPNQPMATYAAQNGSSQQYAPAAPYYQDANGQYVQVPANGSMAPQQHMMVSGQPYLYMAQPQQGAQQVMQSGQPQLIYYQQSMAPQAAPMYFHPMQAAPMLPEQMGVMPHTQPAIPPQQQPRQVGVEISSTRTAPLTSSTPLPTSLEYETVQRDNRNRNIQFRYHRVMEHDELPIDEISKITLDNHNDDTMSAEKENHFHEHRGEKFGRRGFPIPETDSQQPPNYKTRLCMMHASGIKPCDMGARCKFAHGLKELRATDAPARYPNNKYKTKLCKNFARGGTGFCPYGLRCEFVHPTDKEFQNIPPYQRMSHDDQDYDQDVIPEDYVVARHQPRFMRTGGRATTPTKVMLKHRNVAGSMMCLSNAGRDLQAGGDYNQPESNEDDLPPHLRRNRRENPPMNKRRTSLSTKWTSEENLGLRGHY

[6] = viability of PTEN-deleted HCT116 cells – cell-based, HCT116 PTEN knockout, dose response (AID 1047); type: functional;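 further: HCT116 colon tumor cells with PTEN knocked out; cells exposed to compound for 60 hours before readout; potency for loss of cell viability measured by luminescence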
[7] = viability of HCT116 lacking mutant beta-catenin – cell-based, human colon tumor, dose response (AID 1045); type: functional;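 further: HCT116 colon tumor cells with beta catenin knocked out; cells exposed to compound for 60 hours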
X-box-binding protein 1 = X-box-binding protein 1 (Homo sapiens, UniProt P17861); type: functional, Cricetulus griseus;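 further: confirmatory dose-response counter-screen serving a CHOP assay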
Sequence of X-box-binding protein 1 (P17861 whole entry): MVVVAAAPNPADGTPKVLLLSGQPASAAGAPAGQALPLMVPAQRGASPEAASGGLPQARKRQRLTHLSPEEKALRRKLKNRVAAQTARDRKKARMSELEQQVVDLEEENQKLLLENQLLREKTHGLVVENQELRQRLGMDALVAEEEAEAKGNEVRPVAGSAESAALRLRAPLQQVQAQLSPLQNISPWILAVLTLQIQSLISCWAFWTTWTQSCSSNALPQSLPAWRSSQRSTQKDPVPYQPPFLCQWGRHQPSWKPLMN

[8] = target: T3, Endoribonuclease toxin MazF (Escherichia coli K-12, UniProt P0AE70); test: activation of MazEF endoribonuclease cleavage – biochemical, fluorescence, single-stranded RNA substrate, uHTS hits, dose response (AID 588481); type: functional
T3 sequence (P0AE70 whole entry): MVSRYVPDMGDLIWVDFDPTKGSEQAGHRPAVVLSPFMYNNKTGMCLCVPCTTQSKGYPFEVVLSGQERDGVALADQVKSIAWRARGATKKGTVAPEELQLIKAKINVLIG

A-375 = test: MITF: Counter assay: A375 proliferation Measured in Cell-Based System Using Plate Reader - 2084-03_Inhibitor_Dose_DryPowder_Activity. [Related pubchem assays (depositor defined):AID488944]; type: functional; settings: Homo sapiens
[9] = target: T3, Endoribonuclease toxin MazF; test: substrate-only fluorescence increase artefacts – biochemical, single-stranded RNase substrate, counter-screen for MazEF activator project, dose response (AID 588502); type: functional

Q: For `CN(C)C(=O)CCc1nc(-c2ccc(C(C)(C)C)cc2)no1`, which IC50 [1] is on record?
A: > 80 µM (inactive)

Q: And the AC50 (Cytochrome P450 2C19)?
A: 22.4 µM (inconclusive)

Q: What about the IC50 (HEK293 [2]) of the same compound?
A: > 80 µM (inactive)

Q: What about the IC50 (Jurkat) of the same compound?
A: > 79 µM (inactive)

Q: And the IC50 (HEK293 [3])?
A: 48.5 µM (inactive)

Q: With `Br.N=c1n(CC(=O)c2ccc([N+](=O)[O-])cc2)c2ccccc2n1Cc1ccc(Cl)cc1` as the compound, how does the EC50 [4] read?
A: 125 µM (active)

Q: And the EC50 [5]?
A: > 300 µM (not active)

Q: What about the EC50 [6] of the same compound?
A: 5.38 µM (active)

Q: What about the EC50 [7] of the same compound?
A: 5.28 µM (active)

Q: And the “Absolute IC50 (XBP1)” value (X-box-binding protein 1)?
A: 10 µM

Q: What about the EC50 [8] of the same compound?
A: > 99 µM (inactive)

Q: And the AC50 (A-375)?
A: 22.2 µM (active)

Q: And the EC50 [9]?
A: 1.93 µM (active)
